pIC50: −log10 of the molar value.
Assays:
Test in all cases: biochemical
Assay type in all cases: binding
[1] = molecular target: kappa (κ) opioid receptor (Homo sapiens, UniProt P41145); conditions: 2C2 cell line membrane, U69593-H3 ligand
[2] = molecular target: mu (μ) opioid receptor (Homo sapiens, UniProt P35372)
[3] = molecular target: human nociceptin receptor (ORL-1) (Homo sapiens, UniProt P41146)
Chain of human nociceptin receptor (ORL-1) (P41146 whole entry): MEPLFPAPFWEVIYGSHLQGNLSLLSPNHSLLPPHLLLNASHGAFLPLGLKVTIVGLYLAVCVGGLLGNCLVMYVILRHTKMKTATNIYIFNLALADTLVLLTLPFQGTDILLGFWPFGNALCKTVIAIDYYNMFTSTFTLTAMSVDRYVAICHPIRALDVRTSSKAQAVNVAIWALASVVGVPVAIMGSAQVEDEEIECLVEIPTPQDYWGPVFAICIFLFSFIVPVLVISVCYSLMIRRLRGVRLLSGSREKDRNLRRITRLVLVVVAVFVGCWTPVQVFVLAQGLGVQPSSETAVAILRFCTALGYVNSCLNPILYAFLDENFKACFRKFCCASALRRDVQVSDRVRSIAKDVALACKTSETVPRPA

Chain of mu (μ) opioid receptor (P35372 whole entry): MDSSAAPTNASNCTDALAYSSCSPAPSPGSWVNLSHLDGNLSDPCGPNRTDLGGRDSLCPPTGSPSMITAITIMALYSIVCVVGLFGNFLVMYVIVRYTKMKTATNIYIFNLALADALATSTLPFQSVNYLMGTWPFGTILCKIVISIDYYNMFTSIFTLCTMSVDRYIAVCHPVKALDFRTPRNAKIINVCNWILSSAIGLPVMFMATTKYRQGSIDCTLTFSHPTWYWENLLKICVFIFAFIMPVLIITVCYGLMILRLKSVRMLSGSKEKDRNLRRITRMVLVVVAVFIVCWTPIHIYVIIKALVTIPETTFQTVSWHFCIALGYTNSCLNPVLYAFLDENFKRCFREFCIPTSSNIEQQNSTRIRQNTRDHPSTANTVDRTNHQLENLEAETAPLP
Chain of kappa (κ) opioid receptor (P41145 whole entry): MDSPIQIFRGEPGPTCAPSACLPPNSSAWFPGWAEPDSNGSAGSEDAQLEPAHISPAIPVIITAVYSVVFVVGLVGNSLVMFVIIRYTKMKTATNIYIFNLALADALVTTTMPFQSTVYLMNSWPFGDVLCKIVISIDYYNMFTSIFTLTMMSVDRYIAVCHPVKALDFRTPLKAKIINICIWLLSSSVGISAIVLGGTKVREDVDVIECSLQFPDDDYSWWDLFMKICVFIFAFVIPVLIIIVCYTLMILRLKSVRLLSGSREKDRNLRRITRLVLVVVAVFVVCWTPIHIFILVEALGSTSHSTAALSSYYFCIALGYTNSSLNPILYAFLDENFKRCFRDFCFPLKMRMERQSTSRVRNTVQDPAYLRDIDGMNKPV

Structure (SMILES)	pIC50 [1]	pIC50 [2]	pIC50 [3]
OC1CN(C2Cc3cccc4cccc2c34)CCC1c1c[nH]c2ncccc12 (mixture of isomers) [Cpd 40, 1-acenaphthen-1-yl-4-(1 H-pyrrolo[2,3-b]pyridin-3-yl)-piperidin-3-ol]	5.37		
c1ccc2c(CN3CCC(c4c[nH]c5ncccc45)CC3)cccc2c1 [Cpd 33, 3-(1-naphthalen-1-ylmethyl-piperidin-4-yl)-1H-pyrrolo[2,3-b]pyridine]		6.46	6.09
c1cc2c3c(cccc3c1)C(N1CCC(c3cn(C4Cc5cccc6cccc4c56)c4ncccc34)CC1)C2 (stereo not drawn) [Cpd 35, 1-acenaphthen-1-yl-3-(1-acenaphthen-1-yl-piperidin-4-yl)-1H-pyrrolo[2,3-b]pyridine]	6.08		
c1cnc2[nH]cc(C3CCN(CC4CCCCC4)CC3)c2c1 [Cpd 52, 3-(1-cyclohexylmethyl-piperidin-4-yl)-1H-pyrrolo [2,3-b]pyridine]			5.46
c1ccc(Oc2ccc(CN3CCC(c4c[nH]c5ncccc45)CC3)cc2)cc1 [Cpd 55, 3-[1-(4-phenoxy-benzyl)-piperidin-4-yl]-1H-pyrrolo[2,3-b]pyridine]		6.47	

— US20080015214A1 (priority 2005, published 2008)
